In patent publication US20110257206A1, “Combinations of Therapeutic Agents for Treating Cancer” (priority 2006, published 2011):

Key:
[1] = test system: A549; test: Combination dose-matrix cell viability assay (CellTiter-Blue / alamar blue), synergy versus Loewe additivity, A549; assay type: cell-based; conditions: combination with Epothilone B; A549 cells; 72 hours; volume between measured and Loewe additive response surfaces; positive = synergistic
Method: The following Examples illustrate the combinations with epothilone B that show a syngeristic effect. All combinations were tested in three (3) distinct cell lines as part of this collaboration: A549, a model of non-small cell lung carcinoma; SKOV-3, a model of ovarian cancer; and SKMEL-28, a model of malignant melanoma.
Cells were cultured in T-175 flasks in complete medium (RPMI-1640, 10% FBS, 1% Penn/Strep) at 37° C. and 5% CO2. Cells were removed from the flask by brief treatment with 0.25% trypsin. Trypsin was inactivated with media and cell count was adjusted appropriately. Cells were then seeded into 384-well microtiter plates (35 μL) at 1500 (A549) or 3,000 (SKOV-3, SKMEL-28) cells/well using a multi-drop 16-24 hours prior to compound addition for general screening. […]
A solution of 5% CellTiter-Blue (Promega) viability dye in complete medium was dispensed to assay plates using a multi-drop or 384-well pipettor. […] Plates were allowed to cool to room temperature for one hour before reading fluorescence intensity at 590 nm after excitation at 540 nm in a Wallac Victor-V plate reader.
The measure of effect was the inhibition of cell viability using an alamar blue viability assay relative to the untreated level (vehicle alone). For untreated and treated levels U and T, a fractional inhibition I=1−T/U was calculated. […]

[2] = test system: SKMEL28; test: Combination dose-matrix cell viability assay (CellTiter-Blue / alamar blue), synergy versus Loewe additivity, SKMEL-28; assay type: cell-based; conditions: combination with Epothilone B; SKMEL28 cells; 72 hours; volume between measured and Loewe additive response surfaces; positive = synergistic
From the text: The inhibition ranges from 0% at the untreated level to 100% when T=0.
This effectively calculates a volume between the measured and Loewe additive response surfaces, weighted towards high inhibition and corrected for varying dilution factors.

Compound: O=C1C(SCCO)=C(SCCO)C(=O)c2ccccc21 [1,4-Naphthalenedione, 2,3-bis[(2-hydroxyethyl)thio]-(9CI)]
- Synergy Score [1]: 1.233

Compound: Butanedinitrile, bis[amino[(2-aminophenyl)thio]methylene]- (9CI)
- Synergy Score [1]: 1.199

Compound: Nc1nc(Cl)nc2c1ncn2C1CC(O)C(CO)O1 (stereo not drawn) [5-(6-amino-2-chloro-purin-9-yl)-2-(hydroxymethyl)oxolan-3-ol]
- Synergy Score [2]: 0.999
